How the values were obtained:
[1] = test system: carrageenin edema of the right hind paw of rats; assay: Carrageenin paw edema, systemic (subcutaneous, back) administration, edema inhibition ED40; assay type: in vivo, Wister male rats; conditions: Rattus norvegicus, sc; s.c. into back, 60 min before 1% carrageenin; edema 3 hours after carrageenin
Experimental: (§1) Using Wister male rats weighting 130-150 g, each group consisting of 6 rats, the local selectivity of the anti-inflammatory action was investigated by the systemic and local administration of the compounds of the present invention and comparative compounds.
In the evaluation of systemic administration, a test compound suspended into 1% gum arabic was subcutaneously injected into back of rats at doses of 0.01, 0.03, 0.1, and 0.3 mg/kg (5 ml/kg). After 60 minutes following the administration, 1% carrageenin (0.1 ml) was injecte into the plantar surface of the right hind paw. The paw volume was measured with a plethysmometer before and 3 hours after the carrageenin injection. The value was compared with the corresponding value of the control group, thus obtaining the edema inhibition rate, from which ED40 was determined.

[2] = test system: carrageenin edema of the paw of rats; assay: Carrageenin paw edema, local (into paw) administration, edema inhibition ED40; local selectivity (A)/(B); assay type: in vivo, Wister male rats; conditions: ratio of ED40 systemic to ED40 local
Experimental: as §1
For the local administration test, the test compound suspended in 1% carrageenin was subcutaneously injected into a paw in the rats at doses of 0.01, 0.03, and 1.0 μg/paw (0.1 ml/paw). Three hours after the carrageenin injection, the volume of the edema was compared with the corresponding value of the control group, thus obtaining the edema inhibition rate, from which ED40 was determined.
The ratio of the ED40 values thus obtained was taken for the evaluation of the local selectivity. [formula]
The higher the value, the greater is the selectivity.

human skin = assay: Skin vessel constriction activity (local anti-inflammatory effect on human skin); assay type: in vivo, human (healthy male subjects); conditions: probit method
Experimental: Skin vessel constriction effects on human skin of the present invention were investigated according to the following method. Dexamethasone 17,21-dipropionate which is known as a very strong anti-inflammatory agent for external application was used as a comparative compound.
Fifteen (15) healthy male subjects who were free from any skin disease anamnesis, such as eczema, dermatosis, or the like, received the test. Test compounds were diluted with 95% ethanol to make 6 sample solutions with different concentrations; highest concentration: 1×10^-2, lowest concentration: 1×10^-7. A strap to which acryl cells (diameter: 12 mm, thickness: 2 mm, height, 3 mm) were fixed was applied to the back of each subject. The test compound solution was then dropped with a pippet, 0.02 ml per drop, according to a key-code allocated at random. After drying by air, the strap was peeled off. The coated area was covered with a polyvinylidene chloride film, of which the periphery was fixed with a strap for the patch test. The period of time during which the covering was applied was 16 hours. The judgment was made according to the following standard four times at 1, 2, 5, and 8 hours after the removal of the film.
++: The coated skin was strongly pale.
+: The coated skin was distinctly pale.
±: The coated skin was slightly pale.
The results were analyzed by the probit method to obtain the ED50 value (≥+) at which the coated area was clearly pale. The results are shown in Table 2, in which the relative value for the compounds of the present invention determined by taking the ED50 value for dexamethasone 17,21-dipropionate as 100 are given in parentheses.

[3] = 1 hour after removal of film (16 hours covering)
[4] = 2 hours after removal of film (16 hours covering)
[5] = 5 hours after removal of film (16 hours covering)
[6] = 8 hours after removal of film (16 hours covering)

| Structure (SMILES) | ED40 [1] [mg/kg] | Local Selectivity (A)/(B) [2] | ED50 value (≥ +) concentration (human skin; [3]) | ED50 value (≥ +) concentration (human skin; [4]) | ED50 value (≥ +) concentration (human skin; [5]) | ED50 value (≥ +) concentration (human skin; [6]) |
| --- | --- | --- | --- | --- | --- | --- |
| C[C@@H]1C[C@H]2[C@@H]3CCC4=CC(=O)C=C[C@]4(C)[C@@]3(F)[C@@H](O)C[C@]2(C)[C@@]1(OC(=O)C1CC1)C(=O)CO [Compound No. 1, 9α-fluoro-11β,17,21-trihydroxy-16α-methylpregna-1,4-diene-3,20-dione 17-cyclopropanecarboxylate] | 0.28 | 3.50 | 1.45 × 10^-4% | 1.19 × 10^-4% | 7.29 × 10^-4% | 1.24 × 10^-2% |
| C[C@@H]1C[C@H]2[C@@H]3CCC4=CC(=O)C=C[C@]4(C)[C@@]3(F)[C@@H](O)C[C@]2(C)[C@@]1(OC(=O)C1CC1)C(=O)COC(=O)C1CC1 [Compound No. 4, 9α-fluoro-11β,17,21-trihydroxy-16α-methylpregna-1,4-diene-3,20-dione 17,21-dicyclopropanecarboxylate] | 0.83 | 3.95 | 5.10 × 10^-4% | 3.17 × 10^-4% | 2.00 × 10^-3% | 1.36 × 10^-2% |
| CCCC(=O)OCC(=O)[C@@]1(OC(=O)CCC)[C@H](C)C[C@H]2[C@@H]3CCC4=CC(=O)C=C[C@]4(C)[C@@]3(F)[C@@H](O)C[C@@]21C [dexamethasone-17,21-dibutylate, reference compound] | 0.34 | 2.00 |  |  |  |  |
| CCC(=O)OCC(=O)[C@@]1(OC(=O)CC)[C@H](C)C[C@H]2[C@@H]3CCC4=CC(=O)C=C[C@]4(C)[C@@]3(F)[C@@H](O)C[C@@]21C [dexamethasone-17,21-dipropionate, Dexamethasone 17,21-dipropionate, reference compound] |  |  | 5.48 × 10^-4% | 4.11 × 10^-4% | 8.62 × 10^-3% | 3.19 × 10^-2% |
| CCCC(=O)O[C@]1(C(=O)CO)[C@H](C)C[C@H]2[C@@H]3CCC4=CC(=O)C=C[C@]4(C)[C@@]3(F)[C@@H](O)C[C@@]21C [dexamethasone-17-butylate, reference compound] | 0.18 | 0.62 |  |  |  |  |

Reference: patent publication US5063222A, “Antiinflammatory dexamethasone 17α-cyclopropanecarboxylates with reduced systemic activity” (SS Pharmaceutical Co., Ltd., priority 1989, dated 1991)
